Laboratory results from patent publication US9420793B2, “Antiparasitic compounds” (Avista Pharma Solutions, priority 2015, dated 2016).
Several values for one entry are separate records, joined by “and”; a condition that tells them apart may be missing. Identical values can stand only once. Like-named read-outs stand apart in the source and are kept apart here.

Tests used:
Ctenocephalides felis [1] = assay: Ctenocephalides felis residual contact assay; details: for Contact EC50: 48 h, fleas
Procedure: Ctenocephalides felis Residual Contact Assay
A solution of the test compounds, individually and in combination was dispensed onto a substrate placed into a glass vial. The treated surface was allowed to dry before infesting each vial with 10 adult Ctenocephalides felis. The treated vials were held in a controlled environment and assessment was performed at 6, 24 and 48 hours after application in comparison with untreated controls glass vials and solvent-treated glass vials. Compounds were tested in duplicate and two separate trials (n=4).

R. sanguineus = assay: In vitro tick contact assay, comparison with standards
Procedure: (§1) A solution of the test compounds was used to coat the inner wall of glass vials and to treat two filter papers. Once dried, one filter paper was placed in the cap of the vial and the other in the bottom of the vial. Each treated vial was infested with 10 ticks. Contact of the ticks with residues was induced by holding the vials in a controlled environment and assessment was performed at 12, 24 and 48 hours after application in comparison with untreated glass vials and solvent-treated glass vials. Compounds were tested in duplicate and two separate trials (n=4).

D. variabilis = assay: as above
Procedure: as §1

A. americanum = assay: as above
Procedure: as §1

I. scapularis = assay: as above
Procedure: as §1

Ctenocephalides felis [2] = details: for Ingestion EC50: fleas
Procedure: In Vitro Evaluation of Ingestion Activity Against Fleas (Ctenocephalides Felis)
For flea ingestion tests, an aliquot of each compound stock was added to organic bovine blood contained in an artificial feeding container, with a final DMSO concentration of 0.5%. Ten newly emerged unfed fleas, Ctenocephalides felis, from a laboratory colony, 0-7 days old, were aspirated into a chamber and exposed to the appropriate feeding container and held in a controlled environment at 35° C. Fleas were evaluated for % mortality at 24, 48, and 72 hours post infestation. Fleas showing normal movement and/or jumping ability were considered viable and those showing no movement after tapping the vials were scored as dead. The compound+blood mixture was replaced every 24 hours.

[3] = tested on: Dirofilaria immitis microfilariae; assay: Dirofilaria immitis microfilariae motility assay; details: 72 h, read-out: concentration at which active, microfilariae motility
Aedes aegypti = assay: In vitro evaluation of ingestion activity against mosquitoes; details: at 20 hours, compound in bovine blood, read-out: concentration at which active, mosquito ingestion
Procedure: In Vitro Evaluation of Ingestion Activity Against Mosquitoes (Aedes aegypti)
A solution of test compounds is added to bovine blood contained in a feeding chamber to reach the desired final concentration. Blood spiked with DMSO is prepared to serve as control. Adult female mosquitoes are introduced at the bottom of the chamber and allowed to feed on blood mixtures containing DMSO or test compounds for 30 minutes. Fully engorged mosquitoes are sorted into clean chambers after the blood meal and monitored for survival over 3 days. Replicates containing 10 mosquitoes are performed with each test compound concentration and results calculated as % mortality at specific time points.

In the case of `O=C(CNC(=O)c1ccc(C2=NOC(c3cc(Cl)cc(C(F)(F)F)c3)(C(F)(F)F)C2)c2ccccc12)NCC(F)(F)F` (stereo not drawn) [Afoxolaner], the “Contact EC50” value (Ctenocephalides felis [1]) is reported as over 50 ppm, the “R. sanguineus Contact EC50” value (R. sanguineus; 24 h) is reported as over 50 ppm and the “R. sanguineus Contact EC50” value (R. sanguineus; 48 h) is reported as 20.2 ± 5.0 ppm. For the same compound, the “D. variabilis Contact EC50” value (D. variabilis; 24 h) was over 50 ppm, the “D. variabilis Contact EC50” value (D. variabilis; 48 h) was 12.35 ± 0.5 ppm and the “A. americanum Contact EC50” value (A. americanum; 24 h) was 31.6 ppm and > 50 ppm. The “A. americanum Contact EC50” value (A. americanum; 48 h) was 11.3 ± 2.3 ppm, the “I. scapularis Contact EC50” value (I. scapularis; 24 h) was 17.8 ± 5.9 ppm and the “I. scapularis Contact EC50” value (I. scapularis; 48 h) was 5.31 ± 1.8 ppm. For the same compound, the “Ingestion EC50” value (Ctenocephalides felis [2]; 2 h) was 6.0 ± 2.9 ppm and the “Ingestion EC50” value (Ctenocephalides felis [2]; 24 h) was 0.13 ± 0.05 ppm.

In the case of `O=C(CC(F)(F)F)N1CC2(C1)OCc1cc(C3=NSC(c4cc(Cl)c(F)c(Cl)c4)(C(F)(F)F)C3)ccc12` (stereo not drawn) [Compound 1, 1-[6-[5-(3,5-dichloro-4-fluoro-phenyl)-5-(trifluoromethyl)-4H-isothiazol-3-yl]spiro[1H-isobenzofuran-3,3′-azetidine]-1′-yl]-3,3,3-trifluoro-propan-1-one], the minimal effective concentration [3] is reported as under 10 µM, the minimal effective concentration (Aedes aegypti) is reported as under 1 µg/mL and the “Contact EC50” value (Ctenocephalides felis [1]) is reported as 29.0 ± 0.3 ppm. For the same compound, the “flea potency by contact relative to commercially available standards” value (Ctenocephalides felis [1]; versus fluralaner, afoxolaner) was “superior potency by contact”, the “R. sanguineus Contact EC50” value (R. sanguineus; 24 h) was 17.0 ± 3.8 ppm and the “R. sanguineus Contact EC50” value (R. sanguineus; 48 h) was 4.6 ± 3.0 ppm. For the same compound, the “D. variabilis Contact EC50” value (D. variabilis; 24 h) was 12.2 ± 0.6 ppm, the “D. variabilis Contact EC50” value (D. variabilis; 48 h) was 5.0 ± 1.6 ppm and the “A. americanum Contact EC50” value (A. americanum; 24 h) was 13.5 ± 5.1 ppm. For the same compound, the “A. americanum Contact EC50” value (A. americanum; 48 h) was 2.7 ± 0.4 ppm, the “I. scapularis Contact EC50” value (I. scapularis; 24 h) was 2.0 ± 0.4 ppm and the “I. scapularis Contact EC50” value (I. scapularis; 48 h) was 0.04 ± 0.02 ppm. The “Ingestion EC50” value (Ctenocephalides felis [2]; 2 h) was 2.6 ± 0.3 ppm, the “Ingestion EC50” value (Ctenocephalides felis [2]; 24 h) was 0.20 ± 0.10 ppm and the “flea potency by ingestion relative to commercially available standards” value (Ctenocephalides felis [2]; versus fluralaner, afoxolaner, (+/−)sarolaner) was “comparable potency by ingestion”.

For `Cc1cc(C2=NOC(c3cc(Cl)cc(Cl)c3)(C(F)(F)F)C2)ccc1C(=O)NCC(=O)NCC(F)(F)F` (stereo not drawn) [Fluralaner], the “Contact EC50” value (Ctenocephalides felis [1]) was over 50 ppm, the “R. sanguineus Contact EC50” value (R. sanguineus; 24 h) was 37.1 ± 16.3 ppm and the “R. sanguineus Contact EC50” value (R. sanguineus; 48 h) was 9.8 ± 5.0 ppm. The “D. variabilis Contact EC50” value (D. variabilis; 24 h) was 18.4 ± 3.0 ppm, the “D. variabilis Contact EC50” value (D. variabilis; 48 h) was 4.9 ± 1.4 ppm and the “A. americanum Contact EC50” value (A. americanum; 48 h) was 20.4 ± 10.7 ppm. The “I. scapularis Contact EC50” value (I. scapularis; 24 h) was 6.4 ± 3.3 ppm, the “I. scapularis Contact EC50” value (I. scapularis; 48 h) was 1.3 ± 0.2 ppm and the “Ingestion EC50” value (Ctenocephalides felis [2]; 2 h) was 1.6 ± 0.7 ppm. The “Ingestion EC50” value (Ctenocephalides felis [2]; 24 h) was 0.06 ± 0.02 ppm.
